One may read the IC50 as the concentration that gives 50% inhibition. Read a low IC50 as greater potency in that assay.

Molecules are shown by their SMILES. A value given as a limit tells only on which side of the number the result lay.

The assay deals with HT29 cells. Kind of assay: Inhibition of cell necrosis (CCK8 method), induced programmed necrosis of HT29 cells. The format is cell-based. Conditions: Homo sapiens, HT-29; rescue from necrosis induced by TNF-α 20 ng/mL, AT-406 1 μM, Z-VAD-FMK 20 μM; 16-20 hours; CCK-8, OD 450 nm. In short, it runs like this:
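Rescue from programmed necrosis was scored by CCK-8 absorbance at 450 nm after 16-20 h of TNF-α (20 ng/mL), AT-406 (1 μM) and Z-VAD-FMK (20 μM) at 37 °C, 5% CO2. HT29 cells had received compound 30 min earlier across nine 4-fold dilutions (top 25000 nM final). IC50 came from % inhibition relative to uninduced and induced-only wells.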
`Cc1ccc(OCCCC(C)(C)O)cc1-c1ccnc(NC(=O)c2nnc(CCc3ccccc3)[nH]2)c1` [Example 182, N-(4-(5-((4-hydroxy-4-methylpentyl)oxy)-2-methylphenyl)pyridin-2-yl)-5-phenethyl-4H-1,2,4-triazole-3-carboxamide] had an IC50 of 100 to 1000 nM. With `Cc1ccc(OCCCC(C)(C)O)cc1-c1ccnc(NC(=O)c2nnc(Cc3ccccc3F)[nH]2)c1` [Example 183, 5-(2-fluorobenzyl)-N-(4-(5-((4-hydroxy-4-methylpentyl)oxy)-2-methylphenyl)pyridin-2-yl)-4H-1,2,4-triazole-3-carboxamide], the concentration for half-maximal inhibition (IC50) is at most 100 nM.

For the molecule `Cc1ccc(OCCCC(C)(C)O)cc1-c1ccnc(NC(=O)c2nnc(Cc3cccc(F)c3)[nH]2)c1` [Example 184, 5-(3-fluorobenzyl)-N-(4-(5-((4-hydroxy-4-methylpentyl)oxy)-2-methylphenyl)pyridin-2-yl)-4H-1,2,4-triazole-3-carboxamide], the IC50 was at most 100 nM. In turn, `Cc1ccc(OCCCC(C)(C)O)cc1-c1ccnc(NC(=O)c2nnc(Cc3cccc(Cl)c3)[nH]2)c1` [Example 185, 5-(3-chlorobenzyl)-N-(4-(5-((4-hydroxy-4-methylpentyl)oxy)-2-methylphenyl)pyridin-2-yl)-4H-1,2,4-triazole-3-carboxamide] gave an IC50 of at most 100 nM. `COc1cccc(Cc2nnc(C(=O)Nc3cc(-c4cc(OCCCC(C)(C)O)ccc4C)ccn3)[nH]2)c1` [Example 186, 5-(3-methoxybenzyl)-N-(4-(5-((4-hydroxy-4-methylpentyl)oxy)-2-methylphenyl)pyridin-2-yl)-4H-1,2,4-triazole-3-carboxamide]: the IC50 was 100 to 1000 nM. Take `Cc1ccc(OCCCC(C)(C)O)cc1-c1ccnc(NC(=O)c2nnc(Cc3cccc(C#N)c3)[nH]2)c1` [Example 187, 5-(3-cyanobenzyl)-N-(4-(5-((4-hydroxy-4-methylpentyl)oxy)-2-methylphenyl)pyridin-2-yl)-4H-1,2,4-triazole-3-carboxamide]: the IC50 was at most 100 nM. The result for `Cc1ccc(OCCCC(C)(C)O)cc1-c1ccnc(NC(=O)c2nnc(Cc3ccc(F)cc3)[nH]2)c1` [Example 188, 5-(4-fluorobenzyl)-N-(4-(5-((4-hydroxy-4-methylpentyl)oxy)-2-methylphenyl)pyridin-2-yl)-4H-1,2,4-triazole-3-carboxamide] reads at most 100 nM; that for `Cc1ccc(OCCCC(C)(C)O)cc1-c1ccnc(NC(=O)c2nnc(Cc3ccc(Cl)cc3)[nH]2)c1` [Example 189, 5-(4-chlorobenzyl)-N-(4-(5-((4-hydroxy-4-methylpentyl)oxy)-2-methylphenyl)pyridin-2-yl)-4H-1,2,4-triazole-3-carboxamide], at most 100 nM; that for `COc1ccc(Cc2nnc(C(=O)Nc3cc(-c4cc(OCCCC(C)(C)O)ccc4C)ccn3)[nH]2)cc1` [Example 190, 5-(4-methoxybenzyl)-N-(4-(5-((4-hydroxy-4-methylpentyl)oxy)-2-methylphenyl)pyridin-2-yl)-4H-1,2,4-triazole-3-carboxamide], 100 to 1000 nM. The molecule `Cc1ccc(OCCCC(C)(C)O)cc1-c1ccnc(NC(=O)c2nnc(Cc3ccc(C#N)cc3)[nH]2)c1` [Example 191, 5-(4-cyanobenzyl)-N-(4-(5-((4-hydroxy-4-methylpentyl)oxy)-2-methylphenyl)pyridin-2-yl)-4H-1,2,4-triazole-3-carboxamide] returned a 50% inhibitory concentration (IC50) of 100 to 1000 nM. The molecule `Cc1ccc(OCCCC(C)(C)O)cc1-c1ccnc(NC(=O)c2nnc(Cc3ccc(F)c(F)c3)[nH]2)c1` [Example 192, 5-(3,4-difluorobenzyl)-N-(4-(5-((4-hydroxy-4-methylpentyl)oxy)-2-methylphenyl)pyridin-2-yl)-4H-1,2,4-triazole-3-carboxamide] showed an IC50 of at most 100 nM. As to `CC(C)(O)CCCOc1ccc(C#N)c(-c2ccnc(NC(=O)c3nnc(Cc4ccccc4)[nH]3)c2)c1` [Example 193, 5-benzyl-N-(4-(2-cyano-5-((4-hydroxy-4-methylpentyl)oxy)phenyl)pyridin-2-yl)-4H-1,2,4-triazole-3-carboxamide], the concentration for half-maximal inhibition (IC50) is at most 100 nM. `CC(C)(O)CCCOc1ccc(C(F)(F)F)c(-c2ccnc(NC(=O)c3nnc(Cc4ccccc4)[nH]3)c2)c1` [Example 194, 5-benzyl-N-(4-(5-((4-hydroxy-4-methylpentyl)oxy)-2-(trifluoromethyl)phenyl)pyridin-2-yl)-4H-1,2,4-triazole-3-carboxamide] had an IC50 of at most 100 nM. Next, `CC(C)(C)OCCOc1ccc(C=O)c(-c2ccnc(NC(=O)c3nnc(Cc4ccccc4)[nH]3)c2)c1` [Example 195, 5-benzyl-N-(4-(5-(2-(tert-butoxy)ethoxy)-2-formylphenyl)pyridin-2-yl)-4H-1,2,4-triazole-3-carboxamide]: at most 100 nM; `COc1ccc(C)c(-c2cncc(NC(=O)c3nnc(Cc4ccccc4)[nH]3)c2)c1` [Example 196, 5-benzyl-N-(5-(5-methoxy-2-methylphenyl)pyridin-3-yl)-4H-1,2,4-triazole-3-carboxamide]: above 10000 nM; `CCOc1ccc(C)c(-c2cncc(NC(=O)c3nnc(Cc4ccccc4)[nH]3)c2)c1` [Example 197, 5-benzyl-N-(5-(5-ethoxy-2-methylphenyl)pyridin-3-yl)-4H-1,2,4-triazole-3-carboxamide]: above 10000 nM. As for `CCCCOc1ccc(C)c(-c2ccnc(NC(=O)c3nnc(Cc4ccccc4)[nH]3)c2)c1` [Example 198, 5-benzyl-N-(4-(5-butoxy-2-methylphenyl)pyridin-2-yl)-4H-1,2,4-triazole-3-carboxamide], the IC50 was 100 to 1000 nM.

As to `Cc1ccc(C(C)(C)O)cc1-c1ccnc(NC(=O)c2nnc(Cc3ccccc3)[nH]2)c1` [Example 199, 5-benzyl-N-(4-(5-(2-hydroxypropan-2-yl)-2-methylphenyl)pyridin-2-yl)-4H-1,2,4-triazole-3-carboxamide], the IC50 lay in the range of 1000 to 10000 nM.

Consider `Cc1ccc(OCCCC(C)(C)O)cc1-c1ccnc(NC(=O)c2nnc(Cc3cc(F)cc(F)c3)[nH]2)c1` [Example 200, 5-(3,5-difluorobenzyl)-N-(4-(5-((4-hydroxy-4-methylpentyl)oxy)-2-methylphenyl)pyridin-2-yl)-4H-1,2,4-triazole-3-carboxamide], for which the concentration for half-maximal inhibition (IC50) is at most 100 nM. In turn, `Cc1ccc(OCCCC(C)(C)O)cc1-c1ccnc(NC(=O)c2nnc(Cc3ccc(F)cc3F)[nH]2)c1` [Example 201, 5-(2,4-difluorobenzyl)-N-(4-(5-((4-hydroxy-4-methylpentyl)oxy)-2-methylphenyl)pyridin-2-yl)-4H-1,2,4-triazole-3-carboxamide] registered an IC50 of at most 100 nM. `Cc1ccc(OCCCC(C)(C)O)cc1-c1ccnc(NC(=O)c2nnc(Cc3cccc(F)c3F)[nH]2)c1` [Example 202, 5-(2,3-difluorobenzyl)-N-(4-(5-((4-hydroxy-4-methylpentyl)oxy)-2-methylphenyl)pyridin-2-yl)-4H-1,2,4-triazole-3-carboxamide] yielded an IC50 of at most 100 nM.

`Cc1ccc(OCCCC(C)(C)O)cc1-c1ccnc(NC(=O)c2nnc(Cc3cc(F)ccc3F)[nH]2)c1` [Example 203, 5-(2,5-difluorobenzyl)-N-(4-(5-((4-hydroxy-4-methylpentyl)oxy)-2-methylphenyl)pyridin-2-yl)-4H-1,2,4-triazole-3-carboxamide] showed an IC50 of at most 100 nM.
